# Experiments:
# [1] = biological target: PKM2 (Homo sapiens, UniProt P14618); assay: PKM2 Assay Procedure (LDH/NADH-coupled, absorbance at 340 nm); type: biochemical; settings: PKM2 activation
# Description: B refers to an activator of PKM2 with an AC50 between 100 nM and 500 nM. C refers to an activator of PKM2 with an AC50 greater than 500 nM. AC50s described here in Tables 1 and 2 and FIGS. 1 and 2A-2D are measured according to the “PKM2 Assay Procedure” below.
# • PKM2 stock enzyme solution was diluted in Reaction Buffer • 2 μL of compound was added into each well first, and then 180 μL of the Reaction Mix was added. • Reaction mixture with compound (without ADP) were incubated for 30 minutes at 4° C. • Plates were re-equilibrated to room temperature prior to adding 20 μL ADP to initiate the reaction. • Reaction progress was measured as changes in absorbance at 340 nm wavelength at room temperature (25° C.)
# [2] = test system: A549 cells; assay: Growth inhibition (GI50) side-by-side in regular RPMI versus BME medium; type: cell-based; settings: A549 cells treated for 72 hours
# Description: FIGS. 9A-9F are graphs depicting the effect of various cytotoxic agents on A549 cell growth in BME.
# Cells grown in BME media are not generally more sensitive to cytotoxic agents (FIGS. 9A-9F). A549 cells were grown in RPMI (FIG. 9A, 9B or 9C) or in BME (FIGS. 9D, 9E, and 9F). […] The effect of the PKM2 activators appears to by cytostatic (no induction of apoptosis).
# Sequence of PKM2 (P14618 whole entry): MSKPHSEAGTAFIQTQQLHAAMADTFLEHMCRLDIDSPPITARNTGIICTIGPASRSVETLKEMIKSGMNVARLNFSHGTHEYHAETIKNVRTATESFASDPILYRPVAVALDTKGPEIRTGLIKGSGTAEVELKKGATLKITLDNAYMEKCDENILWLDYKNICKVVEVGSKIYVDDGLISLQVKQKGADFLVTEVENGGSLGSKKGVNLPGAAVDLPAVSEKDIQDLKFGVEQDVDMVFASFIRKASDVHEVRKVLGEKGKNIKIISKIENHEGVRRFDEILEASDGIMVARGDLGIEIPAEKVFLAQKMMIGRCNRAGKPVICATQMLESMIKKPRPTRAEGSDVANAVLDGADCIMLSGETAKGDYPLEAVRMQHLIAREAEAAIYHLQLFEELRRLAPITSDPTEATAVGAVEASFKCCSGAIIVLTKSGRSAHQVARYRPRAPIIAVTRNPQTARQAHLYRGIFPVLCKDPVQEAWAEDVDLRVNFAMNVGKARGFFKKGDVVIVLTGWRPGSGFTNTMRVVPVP
Structure (SMILES),AC50 ([1]; Table 1),further results
Cc1cc2oc(=O)n(C)c2cc1S(=O)(=O)Nc1ccc(F)c(Cl)c1,< 100 nM,
Cc1cc2oc(=O)n(C)c2cc1S(=O)(=O)Nc1cccc(Cl)c1,100 to 500 nM,
COc1ccc(Cl)cc1S(=O)(=O)Nc1ccc2oc(=O)n(C)c2c1 [drawing 91],,AC50 ([1]; Table 2): < 1000 nM
COc1ccc(Cl)cc1S(=O)(=O)Nc1ccc2sc(=O)n(C)c2c1,,AC50 ([1]; Table 2): 1000 to 10000 nM
O=S(=O)(Nc1ccccc1C(F)(F)F)c1cccn1-c1ncc(C(F)(F)F)cc1Cl,> 500 nM,
Cc1cc(C)cc(NS(=O)(=O)c2cncn2-c2ncc(C(F)(F)F)cc2Cl)c1,< 100 nM,
Cc1ccc(OCC(=O)N2CCN(S(=O)(=O)c3cc4oc(=O)n(C)c4cc3C)CC2)cc1,,AC50 ([1]; Table 2): 1000 to 10000 nM
Cc1cc2c(s1)c1cnn(Cc3ccccc3F)c(=O)c1n2C,< 100 nM,
O=S(=O)(c1ccc2c(c1)OCCO2)N1CCN(S(=O)(=O)c2c(F)cccc2F)CC1,< 100 nM,
O=S(=O)(Nc1cc(F)cc(F)c1)c1cccn1-c1ncc(C(F)(F)F)cc1Cl,> 500 nM,
O=S(=O)(Nc1ccc2c(c1)OCO2)c1cccn1-c1ncc(C(F)(F)F)cc1Cl,< 100 nM,
COc1cccc2c1C(=O)c1c(O)c3c(c(O)c1C2=O)C[C@@](O)(C(=O)CO)C[C@@H]3O[C@H]1C[C@H](N)[C@H](O)[C@H](C)O1 [doxorubicin],,potency of cytotoxic agent in BME compared with RPMI [2]: decreased potency
Cc1cc(C)cc(NS(=O)(=O)c2cccn2-c2ncc(C(F)(F)F)cc2Cl)c1,< 100 nM,
Cc1cc(C)cc(NS(=O)(=O)c2ccnn2-c2ncc(C(F)(F)F)cc2Cl)c1,< 100 nM,
CC[C@]1(O)C[C@@H]2CN(CCc3c([nH]c4ccccc34)[C@@](C(=O)OC)(c3cc4c(cc3OC)N(C)[C@H]3[C@@](O)(C(=O)OC)[C@H](OC(C)=O)[C@]5(CC)C=CCN6CC[C@]43[C@@H]65)C2)C1 [vinblastine],,potency of cytotoxic agent in BME compared with RPMI [2]: decreased potency
CC(=O)O[C@@]12CO[C@@H]1C[C@H](O)[C@@]1(C)C(=O)[C@H](O)C3=C(C)[C@@H](OC(=O)[C@H](O)[C@@H](NC(=O)OC(C)(C)C)c4ccccc4)C[C@@](O)([C@@H](OC(=O)c4ccccc4)[C@H]21)C3(C)C [docetaxel],,potency of cytotoxic agent in BME compared with RPMI [2]: decreased potency
O=S(=O)(Nc1ccc2c(c1)OCCO2)c1cncn1-c1ccc(C(F)(F)F)cn1,> 500 nM,
Cc1cccc(NS(=O)(=O)c2cncn2-c2ncc(C(F)(F)F)cc2Cl)c1,< 100 nM,
Cn1c(=O)oc2cc(NS(=O)(=O)c3cccs3)ccc21,,AC50 ([1]; Table 2): 10000 to 50000 nM
COc1ccc(Cl)cc1S(=O)(=O)Nc1ccc2oc(=O)n(C)c2c1 [drawing 74],,AC50 ([1]; Table 2): > 100000 nM
Cc1cc(NS(=O)(=O)c2cccn2-c2ncc(C(F)(F)F)cc2Cl)ccc1F,< 100 nM,
Cc1cc(C)cc(NS(=O)(=O)c2ccc3c(c2)oc(=O)n3C)c1,< 100 nM,
Cc1cc2oc(=O)n(C)c2cc1S(=O)(=O)Nc1cc(F)cc(Cl)c1,> 500 nM,
Cn1c(=O)oc2cc(S(=O)(=O)Nc3cccc(Cl)c3)ccc21,< 100 nM,

# More lines, main results first:
AC50 ([1]; Table 1),Structure (SMILES),further results
< 100 nM,O=C(c1ccc(NS(=O)(=O)c2cccc3cccnc23)cc1)N1CCN(Cc2ccccc2Cl)CC1,
> 500 nM,O=C(c1ccc(NS(=O)(=O)c2ccc(Cl)cc2)cc1)N1CCN(c2ncccn2)CC1,
> 500 nM,COc1ccccc1N1CCN(C(=O)c2ccc(NS(=O)(=O)c3ccc(Cl)c4nonc34)cc2)CC1,
100 to 500 nM,COc1ccccc1N1CCN(C(=O)c2ccc(NS(=O)(=O)c3ccc4c(c3)OCCO4)cc2)CC1,
< 100 nM,O=C(c1ccc(NS(=O)(=O)c2cccc3cccnc23)cc1)N1CCN(Cc2cccc(Cl)c2)CC1,
< 100 nM,N#Cc1cccc(CN2CCN(C(=O)c3ccc(NS(=O)(=O)c4cccc5cccnc45)cc3)CC2)c1,
> 500 nM,COc1ccccc1N1CCN(C(=O)c2ccc(NS(=O)(=O)c3ccc4ccccc4c3)cc2)CC1,
100 to 500 nM,CC(=O)c1ccc(CN2CCN(C(=O)c3ccc(NS(=O)(=O)c4cccc5cccnc45)cc3)CC2)cc1,
< 100 nM,O=C(c1ccc(NS(=O)(=O)c2cccc3cccnc23)cc1)N1CCN(Cc2ccc(Cl)cc2)CC1,
100 to 500 nM,O=C(c1ccc(NS(=O)(=O)c2cccc3cccnc23)cc1)N1CCN(c2ncccn2)CC1,
< 100 nM,COc1ccccc1N1CCN(C(=O)c2ccc(N(C)S(=O)(=O)c3cccc4cccnc34)cc2)CC1,
< 100 nM,O=C(c1ccc(NS(=O)(=O)c2cccc3cccnc23)cc1)N1CCN(Cc2ccc(Br)cc2)CC1,
< 100 nM,O=C(c1ccc(NS(=O)(=O)c2cccc3cccnc23)cc1)N1CCN(Cc2ccccc2)CC1,
< 100 nM,O=C(c1ccc(NS(=O)(=O)c2cccc3cccnc23)cc1)N1CCN(Cc2cccnc2Cl)CC1,
< 100 nM,O=S(=O)(Nc1ccc(Cl)cc1)c1cccn1-c1ncc(C(F)(F)F)cc1Cl,
< 100 nM,COc1ccccc1CN1CCN(C(=O)c2ccc(NS(=O)(=O)c3cccc4cccnc34)cc2)CC1,
> 500 nM,O=S(=O)(Nc1ccc(Cl)cc1)c1cncn1-c1cnccn1,

AC50 ([1]; Table 1),Structure (SMILES),further results
< 100 nM,O=C(c1ccc(NS(=O)(=O)c2cccc3cccnc23)cc1)N1CCN(Cc2ccccn2)CC1,
< 100 nM,Nc1cccc(S(=O)(=O)N2CCCN(S(=O)(=O)c3cccc4c3OCCO4)CC2)c1,
< 100 nM,Cc1cc(C)cc(NS(=O)(=O)c2cccn2-c2ncccn2)c1,
< 100 nM,O=S(=O)(Nc1ccc(F)c(Cl)c1)c1cncn1-c1cnccn1,
> 500 nM,COc1ccccc1N1CCCN(C(=O)c2ccc(NS(=O)(=O)c3cccc4cccnc34)cc2)CC1,
< 100 nM,COc1ccccc1N1CCN(C(=O)c2ccc(NS(=O)(=O)c3cccc4cccnc34)cc2)CC1,
< 100 nM,COc1cccc(CN2CCN(C(=O)c3ccc(NS(=O)(=O)c4cccc5cccnc45)cc3)CC2)c1,
< 100 nM,COc1ccccc1N1CCN(C(=O)c2ccc(NS(=O)(=O)c3cccc4cccnc34)nc2)CC1,
< 100 nM,N#Cc1ccccc1CN1CCN(C(=O)c2ccc(NS(=O)(=O)c3cccc4cccnc34)cc2)CC1,
100 to 500 nM,Cc1cc(NS(=O)(=O)c2cnn(-c3cnccn3)c2)ccc1F,
< 100 nM,N#Cc1ccc(CN2CCN(C(=O)c3ccc(NS(=O)(=O)c4cccc5cccnc45)cc3)CC2)cc1,
100 to 500 nM,O=C(COc1ccc(-n2cnnn2)cc1)N1CCN(S(=O)(=O)c2ccc3ccccc3c2)CC1,
< 100 nM,O=C(c1ccc(NS(=O)(=O)c2cccc3cccnc23)cc1)N1CCN(c2ccccc2)CC1,
< 100 nM,CC(=O)c1ccccc1CN1CCN(C(=O)c2ccc(NS(=O)(=O)c3cccc4cccnc34)cc2)CC1,
> 500 nM,O=S(=O)(Nc1ccc(F)cc1)c1cncn1-c1ccc(C(F)(F)F)cn1,
< 100 nM,O=C(c1ccc(NS(=O)(=O)c2cccc3cccnc23)cc1)N1CCN(Cc2ccc(F)cc2)CC1,
< 100 nM,O=C(c1ccc(NS(=O)(=O)c2cccc3cccnc23)cc1)N1CCN(Cc2ccc(Cl)nc2)CC1,
